Data as given in a melting point compilation (Tetko et al.; mined from patent text by program, amines drawn as free bases though some values may be those of a salt).

SMILES	melting point
O=C1NC(=O)C(c2c3n(c4ccccc24)CCC(CO)C3)=C1c1coc2ccccc12 (stereo not drawn)	246 to 248 °C
CCOC(=O)c1c(C)cc2cnc(-c3ccccc3F)nc2c1C	98 to 100 °C
COc1cc2c(C)c(-c3ccccc3)sc2c(Cl)c1Cl	138 °C
CCc1ccc2oc(=O)c(NC(=O)Nc3ccc(F)cc3F)c(-c3ccccc3C)c2c1	210 to 211 °C
CC=CC(=O)N(CCCC(=O)O)C(C)(C)CC(C)(C)C	92 to 93 °C
CSc1ccc(/C=C2/C(C)=C(CCO)c3cc(F)ccc32)cc1	101 to 103 °C
O=C1NC(=O)C(n2cnc3ccccc32)=C1c1c[nH]c2ccccc12	310 to 320 °C
C#CCn1c(=O)n(C(C)C)c2ccc(-c3ncc(C(F)(F)F)cc3Cl)cc21	109 to 111 °C
CCCCCCCCCCCCCC(=O)NN(C)C	63.5 to 64.5 °C
CCCCCCCCCC(=O)OC1CCC2C3CCC4=CC(=O)CCC4C3CCC12CC (stereo not drawn)	97 to 97.5 °C
CN1c2ccc(Cl)cc2C(c2ccccc2F)=Nc2cccnc21	136 to 138 °C
O=C(Cl)N1CCN(c2ccccc2)CC1	79.5 °C
CN(C)Cc1ccc(-c2cccc(-c3ccnc4c(C(=O)c5cccs5)cnn34)c2)cc1	192 to 195 °C
Cc1nc2c(c3c1[nH]c1cc(F)ccc13)C(=O)CC(C(C)C)C2 (stereo not drawn)	285 to 286 °C
Nc1cc(Oc2cc(Cl)cc(Cl)c2)nc(C(=O)O)c1Cl	196 °C
CN1CC(=O)Nc2ccccc2C1	113 to 114 °C
c1ccc2c3cncc-3cncc2c1	220 to 221 °C
Nc1nc(CCc2ccccc2)nc2oc(-c3ccco3)nc12	206 to 208 °C
OC1CCN(Cc2cccc(F)c2)CC1	61 to 62 °C
CC(CNC(c1ccccc1)c1ccccc1)NC(c1ccccc1)c1ccccc1 (stereo not drawn)	72 to 75 °C
COCOC1CCC2(C)C(=CCC3C2CCC2(C)C(COCc4ccccc4)CCC32)C1 (stereo not drawn)	75 to 76 °C
CCOC(=O)c1ncn2c1CN=C(c1ccccc1F)c1cc(Br)ccc1-2	200 to 202 °C
CCc1nccn1Cc1ccc2c(c1)Cc1c(-c3ccsc3)n[nH]c1-2	129 to 132 °C

SMILES	melting point
CC(=Cc1ncon1)c1ccc(Cl)cc1	56 to 57 °C
COC(=O)c1cc(Cl)cc(C(F)(F)F)n1	62 to 63 °C
CCOC(=O)CNCc1cccc(-c2c(CC(=O)Nc3ccc(F)cc3C(F)(F)F)c(=O)oc3cc(Cl)c(C)cc23)c1	153 to 155 °C
Nc1[nH]c(=S)nc2nc[nH]c12	196 to 198 °C
O=CNc1ccccc1C(=O)Nc1nnn[nH]1	247 to 248 °C
CCCCCCCCCCCCn1nnc(CC(=O)Nc2c(C(C)C)cccc2C(C)C)n1	75 to 79 °C
O=C(O)c1cc(-n2c(-c3ccccc3)cc3c2CCCC3)ccc1S	186 to 188 °C
O=C1OC(=O)c2c1cccc2N1C(=O)CCCC1=O	234 to 236 °C
CN1CCN(C(=O)Nc2cc(Br)ccc2N2CCc3cc(Br)ccc32)CC1	118 to 120 °C
Nc1cc(O)nc(SCc2c(F)cccc2F)n1	245 to 246 °C
CNC1CCN(c2ncc3ncnc(Nc4ccc(F)c(Cl)c4)c3n2)CC1	174 to 176 °C
Ic1ccc2c(c1)ncn2-c1cccc(-c2ccccn2)c1	157 to 158 °C
O=S1(=O)c2cccc3cccc(c23)N1CCCN1CCC(n2c(O)nc3ccccc32)CC1	253 °C
FC(F)(F)c1cc(C2CN(Cc3ccccc3)CO2)c2cccc(C(F)(F)F)c2n1 (stereo not drawn)	108 to 109 °C
O=CNCC1Cc2ccccc2Cc2ccccc21 (stereo not drawn)	109 to 111 °C
N#Cc1cccnc1-n1cc(-c2ccc(Oc3ccccc3)cc2)c2c(N)ncnc21	242 °C
COc1ccc(NC(=O)c2ccc(-c3ccc(C(=O)N4CCC4)cc3C)cc2)cc1N1CCN(C)CC1	167 to 170 °C
CCOc1c(C)c(N2CCN(c3ccc(F)cc3)CC2)c(C)c2c1OC(C)C2 (stereo not drawn)	136 to 138 °C
NS(=O)(=O)c1cc2c(s1)SCC(=O)N2	243 to 245 °C
COc1c(Cl)cc2nc3c(=O)[nH][nH]c(=O)c3c(O)c2c1Cl	210 to 211 °C
CCCN(CCCCNc1ncc(Cc2ccncc2)c(=O)[nH]1)c1ccccn1	58 to 60 °C
CCOC(=O)c1cn(-c2cccnc2)nc1Cl	90 to 93 °C
N#CNC(=N)CCCSc1nccc(NC(N)=NCC(F)(F)F)n1	224 °C

SMILES	melting point
CCN(CC)CCCNC(=O)Cn1c(-c2ccc(Cl)cc2)nc2cccnc21	172 to 174 °C
Cn1c(-c2ccccc2)c(C2=CCC(C(=O)O)(C(=O)O)CC2)c2ccccc21	210 to 211 °C
N#CC1NC(CO)C(O)C(O)C1O (stereo not drawn)	143 °C
CC(C)Cc1ccc2c(c1O)C(=O)c1c(ccc(CC(C)C)c1O)C2=O	138 to 140 °C
Cc1nonc1-n1cc(C(=O)O)c(=O)c2c(C)c(F)c(F)cc21	200 to 202 °C
O=C1CC(c2cccc(-n3ccnc3)c2)=Nc2cc(O)c(-c3ccccc3F)cc2N1	220 °C
CCN1CCC2(c3cccc(OC)c3)Cc3[nH]c(C(=O)Nc4ccccc4)c(C)c3CC2C1 (stereo not drawn)	178 to 180 °C
CC(C)c1cc(C(C)C)c(NC(=O)CN2CCN(CCSc3nc4ccccc4[nH]3)CC2)c(C(C)C)c1	217 to 218 °C
CCC(CC)Sc1cc2c(cc1Cl)N=C(CCl)NS2(=O)=O	213 to 214 °C
CN1CC(c2ccc(Cc3ccc(F)cc3)cn2)=C(O)C1=O	204 to 206 °C
O=C(c1ccc(-c2cc3cnc(Nc4cccc(Cl)c4)nc3[nH]2)cc1)N1CCOCC1	> 250 °C
O=Cc1ccc(OCc2ccc3ccccc3n2)cc1	69 to 72 °C
COc1nnc(Cl)c2c1CCCC2	117 to 119 °C
CC(C)(O)c1cccc(-c2ccc3nc(-c4ccc(Cl)cc4)cn3c2)c1	166 to 168 °C
CCCCc1nc2c(N)nc3cc(-c4ccccc4OCCC)ccc3c2n1CC(C)C	174 to 176 °C
Cc1ccc(N2CCN(Cc3cnc(N)nc3N)CC2)cc1	248 to 250 °C
COc1c(S(=O)C(F)(F)F)c(C#N)nn1-c1c(Cl)cc(C(F)(F)F)cc1Cl (stereo not drawn)	136 to 137 °C
C[C@@H](Nc1nnc(-c2ccccc2)c2ccccc12)C1CCCCC1	164 to 167 °C
COc1ccc(CN(C)CCCCc2ccc(NC(=O)c3cccc4c(=O)c5ccccc5sc34)cc2)cc1OC	156 °C
NC(=O)C1(Cl)CC2C3CC4C2C4C31 (stereo not drawn)	124 to 126 °C
Nc1c(-c2cc(Cl)ccc2O)c2c(C(F)(F)F)c(Cl)ccc2[nH]c1=O	139 to 140 °C
CNCCCOc1cc(F)c(-c2c(Cl)nc(-c3cnccn3)nc2N[C@@H](C)C(F)(F)F)c(F)c1	48 to 50 °C
CCC(Cl)c1ccc(CCNS(=O)(=O)c2ccc(Cl)cc2)cc1 (stereo not drawn)	90 to 91 °C

Other lines, results leading:

melting point	SMILES
268 to 270 °C	Cc1nc2c3c(c(C(=O)NCC(O)CO)cc2n1C)CCC(c1ccccc1)O3 (stereo not drawn)
59 °C	CCCOC(=O)n1cc2c(n1)NC(CCC)=C(C(=O)OCC)C2c1ccccc1Cl (stereo not drawn)
195 °C	CCOC(=O)C1=C(c2ccccc2)Nc2n[nH]cc2C1c1ccccc1OC (stereo not drawn)
226 to 231 °C	CC1CC(C)CN(S(=O)(=O)c2cc(Cl)cc(C(=O)O)c2)C1 (stereo not drawn)
144 to 146 °C	COc1ccc(F)c(C(=O)O)c1
89 to 90 °C	COC(=O)[C@@H](CC(C)C)NC(=O)c1ccc2c(c1)OCO2
203 to 204 °C	CCCc1c(C(=O)NCc2ccc3cc(OCC(=O)O)ccc3c2)cnn1-c1ccc(Cl)cc1
101 to 102 °C	CCCOc1cc2c(=O)c3ccccc3sc2cc1Cl
114 to 116 °C	COC(=O)c1c(N)cc(Cl)cc1[N+](=O)[O-]
115 to 116 °C	Cc1cc(=O)c(OCc2ccccc2)c(CO)o1
126 to 127 °C	Cc1oc(-c2ccc(C(N)=O)cc2)nc1CCOc1ccc(OC(C)(C)C(=O)O)cc1
110 to 112 °C	COc1ccc(OCCO[N+](=O)[O-])c(C2NC(C(=O)O)CS2)c1 (stereo not drawn)
30 to 31 °C	CC(C)OC(=O)CCc1nc(-c2ccc(Cl)cc2)co1
204 to 207 °C	CC(=O)Oc1c(C)c(C)c2c(c1C)C(=O)CC(O)(COc1ccc([N+](=O)[O-])cc1)O2 (stereo not drawn)
147 to 149 °C	COc1ccc2c3c(c(=O)oc2c1)CN(Cc1ccc(C)cc1)CC3
148 to 149 °C	CCOC(=O)c1cc2c(C)c(F)ccc2[nH]1
102 to 103 °C	CCOC1=CCc2c(OC)ccc(OC)c2C1

melting point	SMILES
246 to 248 °C	CNC1CCN(c2c(F)cc3c(=O)c(C(=O)O)cn(C4CC4)c3c2OC)CC1(C)C (stereo not drawn)
167 to 169 °C	CNC(=O)Nc1ccc(OCCCN2CCN(c3ccccc3)CC2)c(OC)c1
115 °C	COc1cccc(CN2N=C(c3ccc(OC)c(OC)c3)[C@@H]3CCCC[C@@H]3C2=O)c1 (relative stereo)
156 to 157 °C	CCCCOC(=O)COc1ccc(C(=O)Nc2ccccc2Sc2ccc(Cl)cc2-c2nnn[nH]2)cc1
77 to 78 °C	C=CCOC(=O)c1cc(NC(=O)OC(C)(C)C)ccc1OCC=C
62 to 64 °C	CCOC(=O)CC/C=C(\C)c1sccc1Br
165 to 166 °C	CC(=O)NC=Cc1ccc(OC(C)=O)cc1
112 to 113 °C	Cc1cccc(CC(=O)O)c1OCCCc1cn(-c2ccc(Cl)cn2)nc1C(C)(C)C
296 to 298 °C	O=C(O)/C=C/c1cc(F)c2ncc(C(=O)NCc3ccc(Cl)cc3)c(O)c2c1
67 to 72 °C	COc1ccc2c(c1)CC(=O)CO2
209 to 210 °C	CCOC(=O)c1c(-c2ccc(OC)c(OC)c2)c2cc(Cl)ccc2[nH]c1=O
113 to 115 °C	CCc1cn(C2CC(O)C(CCCO)O2)c(=O)[nH]c1=O (stereo not drawn)
130 to 131 °C	CCOC(=O)c1cnc2cn[nH]c2c1Sc1ccccc1
83 to 85 °C	CCOC(=O)CON(C(=S)Nc1cc(Cl)ccc1C)C(C)C
225 to 228 °C	CC1(C)CCc2[nH]cc(C(=O)O)c2C1=O
71.5 to 73 °C	CCOC(=O)CCc1ccc(C(=O)c2ccc(Cl)cc2)n1C
128 to 130 °C	COC(=O)C1Cc2c([nH]c3ccccc23)C(c2ccc(Cl)cc2Cl)N1 (stereo not drawn)
